Measurements as given in patent US9072295B2, “Herbicidal compositions” (Syngenta Participations AG, priority 2011, dated 2015).

Tests used:
[1] = test system: Winter wheat; experiment: Field test: herbicidal damage to winter wheat after pre-emergence fomesafen, with or without safener A seed treatment; conditions: seed treatment 100 g/100 kg seed; fomesafen up to 560 g/ha
Description: Winter wheat seed is treated with safener A (1-[4-(N-2-methoxybenzoylsulfamoyl)phenyl]-3-methylurea) at 100 g safener/100 kg of seed. Control seed is also included which contains no safener seed treatment. The wheat seed is then planted in a field as a randomized block design including four replications.

[2] = test system: maize varieties (LEXXOR, PACTOL, CLAXXON, GARLAND and SUNDANCE); experiment: Greenhouse study: herbicidal damage to maize after pre-emergence PPGO inhibiting herbicides, with or without safener seed treatment; format: in vivo; conditions: seed treatment 1 g/kg seed; 8 DAA
Description: A greenhouse study is performed to evaluate the safener response of various maize varieties to various PPGO inhibiting herbicides. […] Control seed is also included in the test which contains no safener seed treatment. Herbicide treatments are applied pre-emergence, at the indicated application rates, using a laboratory tracksprayer with a TeeJet 11002VS nozzle. The sprayer is set to deliver an output of 200 L/ha by applying an air pressure of 2 bar. The treated and control seeds are then planted in the treated sandy loam soil contained in 10 cm deep plastic trays and watered from the top of the trays as needed.

SMILES: CNC(=O)Nc1ccc(S(=O)(=O)NC(=O)c2ccccc2OC)cc1 [Safener A, 1-[4-(N-2-methoxybenzoylsulfamoyl)phenyl]-3-methylurea]
- Safening of fomesafen in winter wheat [1]: highly effective safening
- Safening against sulfentrazone in maize [2]: particularly good safening
- Safening of the various PPGO inhibiting herbicides tested in maize [2]: highly effective safening
